According to patent publication US20080299140A1, “Immunogenic Composition and Peptide Sequences for Prevention and Treatment of an Hsv Condition” (priority 2002, published 2008):

Tests used:
T-cells = assay: Cytokine analysis (IL-2, IL-4, IFN-γ sandwich ELISA); format: cell-based, mice
Procedure: T-cells were stimulated with either immunizing peptides (10 μg/ml), the irrelevant control peptide (10 μg/ml), UV-inactivated HSV-1 (MOI=3), or with ConA (0.5 μg/ml) as a positive control. Culture media were harvested 48 h (for IL-2) or 96 h (for IL-4 and IFN-γ) later and analyzed by specific sandwich ELISA following the manufacturer's instructions (PharMingen, San Diego, Calif.).

[1] = test system: lymphocytes obtained from HSV-1 infected H-2^d mice; assay: HSV-primed T-cell responses to gD peptides in HSV-1 infected mice; format: cell-based; details: HSV-1 infected H-2^d mice
Procedure: Twelve days after the second immunization, spleen and inguinal lymph nodes (LN) were removed and placed into ice-cold serum free HL-1 medium supplemented with 15 mM HEPES, 5×10^−5 M β-mercaptoethanol, 2 mM glutamine, 50 U of penicillin and 50 μg of streptomycin (GIBCO-BRL, Grand Island, N.Y.) (complete medium, CM). The cells were cultured in 96-well plates at 5×10^5 cells/well in CM, with recall or control peptide at 30, 10, 3, 1, or 0.3 μg/ml concentration, as previously described in (BenMohamed et al., 2000 and 2002). The cell suspensions were incubated for 72 h at 37° C. in 5% CO2. One μCi (micro-curie) of (^3H)-thymidine (Dupont MEN, Boston, Mass.) was added to each well during the last 16 h of culture. The incorporated radioactivity was determined by harvesting cells onto glass fiber filters and counted on a Matrix 96 direct ionization-counter (Packard Instruments, Meriden, Conn.). Results were expressed as the mean cpm of cell-associated (^3H)-thymidine recovered from wells containing Ag minus the mean cpm of cell-associated (^3H)-thymidine recovered from wells without Ag (A cpm) (average of triplicate). The Stimulation Index (SI) was calculated as the mean cpm of cell-associated (^3H)-thymidine recovered from wells containing Ag divided by the mean cpm of cell-associated (^3H)-thymidine recovered from wells without Ag (average of triplicate). For all experiments the irrelevant control peptide gB141-165 and the T-cell mitogen Concanavalin A (ConA) (Sigma, St. Louis, Mo.) were used as negative and positive controls, respectively. Proliferation results were confirmed by repeating each experiment twice. A T-cell proliferative response was considered positive when A cpm>1000 and SI>2.
To define the fine specificity of broadly reactive T-cells associated with viral immunity and to explore immunodominance in the context of HSV infection, proliferation of lymphocytes obtained from twenty HSV-1 infected H-2^d mice were evaluated using the twelve gD peptides as Ag (FIG. 6). […] Despite a difference between individual mice, a unique array of T-cell responses was identified for each of the twenty infected mice analyzed.

[2] = test system: HLA-DR and HLA-DP molecules; assay: MHC class II binding assays, panel of twelve HLA class II molecules (number of alleles bound); details: number of the twelve class II MHC alleles bound; title: Threshold 600 nM/5 alleles
[3] = T cells treated with Abs to CD4
[4] = T cells treated with Abs to CD8
[5] = splenocyte derived T cells, no Abs, average of triplicates (+/- SD)

CC[C@H](C)[C@H](N)C(=O)N[C@@H](CS)C(=O)NCC(=O)N[C@H](C(=O)N[C@H](C(=O)N[C@@H](Cc1ccc(O)cc1)C(=O)N[C@@H](Cc1c[nH]c2ccccc12)C(=O)N[C@@H](CCSC)C(=O)N[C@@H](CCCNC(=N)N)C(=O)N[C@@H](CCCNC(=N)N)C(=O)N[C@@H](Cc1c[nH]cn1)C(=O)N[C@H](C(=O)N[C@@H](CCC(N)=O)C(=O)N[C@@H](CCCCN)C(=O)N[C@@H](C)C(=O)N1CCC[C@H]1C(=O)N[C@@H](CCCCN)C(=O)N[C@@H](CCCNC(=N)N)C(=O)N[C@H](C(=O)N[C@@H](CCCNC(=N)N)C(=O)N[C@@H](CC(C)C)C(=O)N1CCC[C@H]1C(=O)N[C@@H](Cc1c[nH]cn1)C(=O)N[C@H](C(=O)N[C@@H](CCCNC(=N)N)C(=O)N[C@@H](CCC(=O)O)C(=O)N[C@@H](CC(=O)O)C(=O)O)[C@@H](C)CC)[C@@H](C)CC)[C@@H](C)O)C(C)C)[C@@H](C)CC [HSV 39]
IFNγ, Anti-CD4 (T-cells; [3]): 4 (+/−1) ng/ml
IL-2, Anti-CD4 (T-cells; [3]): 36 (+/−1) pg/ml
IFNγ, Anti-CD8 (T-cells; [4]): 54 (+/−1) ng/ml
IL-2, Anti-CD8 (T-cells; [4]): 13 (+/−4) pg/ml
IFNγ, None (T-cells; [5]): 179 (+/5−) ng/ml
IL-2, None (T-cells; [5]): 135 (+/6−) pg/ml
immunodominance of epitopes in HSV-primed T-cell responses [1]: immunodominant epitopes
Range [2]: 6
